# Data taken from US10793522B2, “Sulfonamides as inhibitors of the uptake of extracellular citrate” (Boehringer Ingelheim International GmbH, priority 2016, dated 2020).
# Columns and labels:
# [1] = molecular target: T1, hSLC13A5 (Homo sapiens, UniProt Q86YT5); test: HepG2/14C-citrate uptake assay; type: cell-based; set-up: HepG2 cells endogenously express hSLC13A5 transporter which is responsible for the uptake of citrate into these cells; endogenous in cells; host or cells: HepG2; conditions: HepG2 cells endogenously expressing hSLC13A5; Cytostar-T; 14C-citrate ~1.8 μM; incubation over night
# Source text: (4) HepG2/^14C-Citrate Uptake Assay
# HepG2 cells endogenously expressing hSLC13A5 were obtained from the Wistar Institute (Knowles et al., Science 1980, 209, 497-499).
# HepG2 cells endogenously express hSLC13A5 transporter which is responsible for the uptake of citrate into these cells. […] The uptake of ^14C-citrate into HepG2 cells is monitored using the Cytostar-T assay. This assay format is based on the imported radioactive citrate brought into proximity with the scintillant contained within the base of the plate by virtue of the biological processes within the cells. The radioactive decay is converted to a light signal based on the integration of the scintillation matrix into the assay plate.
# (§1) Method: ^14C-Citrate Uptake Assay
# Starting from 10 mM stock solutions in 100% DMSO, compounds are diluted in pure DMSO using the appropriate dilution steps. Prior to the uptake assay, 400 μL assay medium+4.8 μL compound solution (or pure DMSO for non-inhibited control wells) are mixed (final DMSO concentration in the assay: 1% (v/v)) ^14C-citrate working solution (volumes required per 96-well):
# The HepG2 cells are cultivated in cell culture medium (EMEM+10% fetal calf serum+1×NEAA and 10 mM L-Glutamin) For the assay, the medium of the confluent cultures is discarded and the cells are washed with DPBS w/o Mg^2+ w/o Ca^2+. The cells are detached by the addition of 1.0 mL 2× Trypsin in DPBS w/o Mg^2+ w/o Ca^2+ with 7.5 mM EDTA per 75 cm^2 culture flask for up to 3 minutes at 37° C. and resuspended in 10 mL cell culture medium. Following cell counting, 100,000 cells/well are seeded in a volume of 200 μL into Cytostar-T Scintillating 96-well microplates. After overnight incubation in a humid cell culture incubator at 37° C., 5% CO2, the cell culture medium is carefully aspirated and the cells are incubated with 200 μL prewarmed (37° C.) assay medium (50% DMEM+50% Ham's F-12+15 mM HEPES (pH 7.4) (medium contains 15.5 m M D(+)-glucose) per well for at least 1 h prior to the experiment.
# Immediately prior to uptake assay, the assay medium is carefully removed and 100 μL test compound dilution is added to each well (n=3).
# Following a 20 min incubation at 37° C. in the cell culture incubator, 20 μL of ^14C-citrate working solution is added to each well (final volume per well: 120 μL; final ^14C-citrate concentration ˜1.8 μM/well)).
# After incubation over night at 37° C. in the cell culture incubator, the plates are sealed on the top using a transparent plastic foil and on the bottom using a white plastic foil. Following the sealing, the plate is placed into the TopCount NXT HTS and the signal is recorded.
# (§2) The IC50 values of the compounds are calculated in IDBS XLfit by sigmoidal dose-response (variable slope).
# [2] = molecular target: T1, hSLC13A5; test: Recombinant hSLC13A5/14C-citrate uptake assay; type: cell-based; conditions: HEK293 Flp-In cells over-expressing hSLC13A5; WGA-PVT SPA beads; 14C-citrate approx. 2 μM; 4 h
# Source text: (5) Recombinant hSLC13A5/^14C-Citrate Uptake Assay
# The human embryonic kidney 293 (HEK 293)-Flp-In cells (293Flp-In-hSLC13A5) over-expressing hSLC13A5 transporter were cloned: The originating plasmid pcDNA3.1-hSLC13A5 containing hSLC13A5 was synthesized at GeneArt. The cDNA for hSLC13A5 was taken from this plasmid by means of PCR amplification using primers with added HindIII (N-terminal) and XhoI (C-terminal) restriction sites and sub-cloned in frame into pcDNA5/FRT from Invitrogen using the respective restriction enzymes. HEK293 Flp-In cells from Invitrogen were stably co-transfected using the pcDNA/FRT-hSLC13A5 plasmid as well as the pOG44 plasmid.
# HEK 293-Flp-In cells are used that stably over-express hSLC13A5 transporter which is responsible for the uptake of citrate into these cells.
# The uptake of ^14C-citrate into the 293Flp-In-hSLC13A5 cells is monitored using the WGA-PVT SPA (wheat germ agglutinin-polyvinyltoluene scintillation proximity assay) beads that bind to the 293Flp-In cells due to their WGA-PVT surface. This assay format is based on the imported radioactive citrate brought into proximity with the SPA beads by virtue of the biological processes within the cells. The radioactive decay is converted into a light signal that can be measured using e.g. the TopCount plate reader.
# as §1
# Test Compound Dilutions (2Fold-Concentrated):
# Starting from 10 mM stock solutions in 100% DMSO, compounds are diluted in pure DMSO using the appropriate dilution steps.
# Prior to the uptake assay, 200 μL assay medium (lx HBSS (with Ca^2+ and Mg^2+, w/o Phenolred), contains 5.56 mM D(+)-Glucose)+19.44 mM D(+)-Glucose (final concentration of D(+)-Glucose is 25 mM))+4.8 μL compound solution (or pure DMSO for non-inhibited control wells) are mixed (final DMSO concentration in the assay: 1% (v/v)).
# After preparing the 2fold-concentrated test compound dilutions, 50 μL are pipetted to each well of white OptiPlates-96 and incubated at 37° C. in an incubator.
# ^14C-Citrate Working Solution (Volumes Required Per 96-Well):
# The 293Flp-In-hSLC13A5 cells are cultivated in cell culture medium (DMEM+10% fetal calf serum+100 μg/mL Hygromycin B). The medium of the confluent cultures is discarded and the cells are washed with DPBS (w/o Mg^2+ w/o Ca^2+). The cells are detached by the addition of 2.0 mL Accumax per 75 cm^2 culture flask for up to 3 minutes at 37° C. and resuspended in 10 mL assay medium. After cell counting, 50,000 cells/well are administered in a volume of 50 μL into the white OptiPlates-96 containing the respective test compound concentrations. Following a 20 min incubation at 37° C. in the cell culture incubator, 20 μL of ^14C-citrate working solution is added to each well (final volume per well: 120 μL; final ^14C-citrate concentration: approx. 2 μM/well).
# After incubation for 4 h at 37° C. in a humid cell culture incubator and the addition of 30 μL of WGA-PVT SPA beads to each well (0.25 mg/well), the plates are sealed on the top using a transparent plastic foil. Incubate the plates for 1 h by room temperature and gentle shaking.
# After incubation, the plate is placed into the TopCount NXT HTS and the signal is recorded.
# The performance of the test compounds is calculated as follows:
# Wells containing cells incubated with 1% DMSO only deliver values for the non-inhibited ^14C-citrate uptake into 293Flp-In-hSLC13A5 cells (100% CTL). Wells containing cells which have received 30 mM non-labelled potassium citrate solution in addition to the ^14C-citrate working solution deliver values for the background (0% CTL).
# as §2
# T1 sequence (Q86YT5 whole entry): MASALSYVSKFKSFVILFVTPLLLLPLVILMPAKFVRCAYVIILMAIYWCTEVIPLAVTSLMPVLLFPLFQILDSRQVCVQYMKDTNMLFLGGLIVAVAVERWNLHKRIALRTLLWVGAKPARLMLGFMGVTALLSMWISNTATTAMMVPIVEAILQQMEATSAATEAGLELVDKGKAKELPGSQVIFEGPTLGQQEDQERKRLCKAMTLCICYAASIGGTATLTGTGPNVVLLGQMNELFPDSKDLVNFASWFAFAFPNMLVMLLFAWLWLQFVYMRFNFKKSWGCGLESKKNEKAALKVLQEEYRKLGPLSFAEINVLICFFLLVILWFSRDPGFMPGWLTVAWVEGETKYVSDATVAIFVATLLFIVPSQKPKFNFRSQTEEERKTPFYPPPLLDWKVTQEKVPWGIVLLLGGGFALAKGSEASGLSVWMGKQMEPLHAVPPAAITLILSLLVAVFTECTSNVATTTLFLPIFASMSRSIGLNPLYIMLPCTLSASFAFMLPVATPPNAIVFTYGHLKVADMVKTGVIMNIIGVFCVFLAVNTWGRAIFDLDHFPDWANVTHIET
SMILES,IC50 [1] [nM],IC50 [2] [nM]
CCc1ccc(CNC(=O)C2CCN(S(=O)(=O)c3cc(Br)cc(Br)c3)CC2)nc1 [(I-31)],66,41
O=C(NCc1ccc(Cl)cn1)C1CCN(S(=O)(=O)c2cc(Cl)cc(Cl)c2)CC1 [(I-12)],103,132
CCOc1cc(Cl)cc(S(=O)(=O)N2CCC(C(=O)NCc3ccc(F)cn3)CC2)c1 [(I-55)],56,189
CCc1ccc(CNC(=O)C2CCN(S(=O)(=O)c3cc(Cl)cc(Cl)c3)CC2)nc1 [(I-17)],130,138
CCOc1cc(Cl)cc(S(=O)(=O)N2CCC(C(=O)NCc3ccccn3)CC2)c1 [(I-53)],110,410
O=C(NCc1ccc(Cl)nc1)C1CCN(S(=O)(=O)c2cc(Cl)cc(Cl)c2)CC1 [(I-3)],471,
COc1ccccc1CNC(=O)C1CCN(S(=O)(=O)c2cc(Br)cc(Br)c2)CC1 [(I-34)],27,
Cc1csc(CNC(=O)C2CCN(S(=O)(=O)c3cc(Cl)cc(Cl)c3)CC2)n1 [(I-14)],83,
COc1ncccc1CNC(=O)C1CCN(S(=O)(=O)c2cc(C)cc(Br)c2)CC1 [(I-58)],168,837
Cc1ccc(CNC(=O)C2CCN(S(=O)(=O)c3cc(Cl)cc(Cl)c3)CC2)cn1 [(I-16)],632,675
COc1cc(Cl)cc(S(=O)(=O)N2CCC(C(=O)NCc3ccc(F)cn3)CC2)c1 [(I-56)],292,436
COc1ncccc1CNC(=O)C1CCN(S(=O)(=O)c2cc(Br)cc(Br)c2)CC1 [(I-33)],182,275
O=C(NCc1ccccc1Cl)C1CCN(S(=O)(=O)c2cc(Cl)cc(Cl)c2)CC1 [(I-18)],60,
O=C(NCc1ccc(Br)cn1)C1CCN(S(=O)(=O)c2cc(Cl)cc(Cl)c2)CC1 [(I-28)],171,127
CCOc1cc(Cl)cc(S(=O)(=O)N2CCC(C(=O)NCc3ccc(Cl)cn3)CC2)c1 [(I-52)],51,200
O=C(NCc1nccs1)C1CCN(S(=O)(=O)c2cc(Cl)cc(Cl)c2)CC1 [(I-9)],246,303
COc1ccccc1CNC(=O)C1CCN(S(=O)(=O)c2cc(Cl)cc(Cl)c2)CC1 [(I-21)],65,
O=C(NCc1ccccc1Br)C1CCN(S(=O)(=O)c2cc(Cl)cc(Cl)c2)CC1 [(I-6)],82,
O=C(NCc1ccc(F)cc1Cl)C1CCN(S(=O)(=O)c2cc(Cl)cc(Cl)c2)CC1 [(I-22)],84,
Cc1ccccc1CNC(=O)C1CCN(S(=O)(=O)c2cc(Cl)cc(Cl)c2)CC1 [(I-19)],72,
O=C(NCc1ccc(Cl)cc1F)C1CCN(S(=O)(=O)c2cc(Cl)cc(Cl)c2)CC1 [(I-25)],37,
O=C(NCc1ccccc1F)C1CCN(S(=O)(=O)c2cc(Br)cc(Br)c2)CC1 [(I-38)],14,
O=C(NCc1cc(F)ccc1F)C1CCN(S(=O)(=O)c2cc(Cl)cc(Cl)c2)CC1 [(I-24)],83,
Cc1csc(CNC(=O)C2CCN(S(=O)(=O)c3cc(Br)cc(Br)c3)CC2)n1 [(I-29)],43,

# The remaining lines, values ahead:
IC50 [1] [nM],IC50 [2] [nM],SMILES
35,,Cc1cc(C)cc(S(=O)(=O)N2CCC(C(=O)NCc3ccc(F)cc3)CC2)c1 [(I-42)]
14,,O=C(NCc1ccc(Cl)cc1)C1CCN(S(=O)(=O)c2cc(Br)cc(Br)c2)CC1 [(I-30)]
30,,O=C(NCc1ccc(Br)cc1)C1CCN(S(=O)(=O)c2cc(Cl)cc(Cl)c2)CC1 [(I-7)]
23,,N#Cc1ccc(CNC(=O)C2CCN(S(=O)(=O)c3cc(Br)cc(Br)c3)CC2)cc1 [(I-32)]
94,,Cc1cc(C)cc(CNC(=O)C2CCN(S(=O)(=O)c3cc(Cl)cc(Cl)c3)CC2)c1 [(I-4)]
142,91,N#Cc1ccc(CNC(=O)C2CCN(S(=O)(=O)c3cc(Cl)cc(Cl)c3)CC2)c(F)c1 [(I-23)]
62,231,CCOc1cc(Cl)cc(S(=O)(=O)N2CCC(C(=O)NCc3ccc(C#N)cc3)CC2)c1 [(I-54)]
34,,Cc1cc(C)cc(S(=O)(=O)N2CCC(C(=O)NCc3ccccc3F)CC2)c1 [(I-47)]
27,98,CCc1ccc(CNC(=O)C2CCN(S(=O)(=O)c3cc(C)cc(Br)c3)CC2)nc1 [(I-59)]
14,66,CCOc1cc(Cl)cc(S(=O)(=O)N2CCC(C(=O)NCc3ccc(F)cc3)CC2)c1 [(I-51)]
48,167,COc1cc(Cl)cc(S(=O)(=O)N2CCC(C(=O)NCc3ccc(F)cc3)CC2)c1 [(I-57)]
14,,O=C(NCc1ccc(Br)cc1)C1CCN(S(=O)(=O)c2cc(Br)cc(Br)c2)CC1 [(I-39)]
422,918,Cc1cc(Br)cc(S(=O)(=O)N2CCC(C(=O)NCc3cccnc3)CC2)c1 [(I-60)]
25,,Cc1cc(C)cc(S(=O)(=O)N2CCC(C(=O)NCc3ccc(Cl)cc3)CC2)c1 [(I-45)]
155,438,Cc1cc(C)cc(S(=O)(=O)N2CCC(C(=O)NCc3nc(C)cs3)CC2)c1 [(I-41)]
17,,Cc1cc(C)cc(S(=O)(=O)N2CCC(C(=O)NCc3ccc(Br)cc3)CC2)c1 [(I-48)]
37,,Cc1ccc(CNC(=O)C2CCN(S(=O)(=O)c3cc(Cl)cc(Cl)c3)CC2)cc1 [(I-8)]
46,,Cc1cc(C)cc(S(=O)(=O)N2CCC(C(=O)NCc3ccc(C#N)cc3)CC2)c1 [(I-43)]
